Data taken from article PMC10107299, “Neutralizing the Impact of the Virulence Factor LecA from Pseudomonas aeruginosa on Human Cells with New Glycomimetic Inhibitors” (Angewandte Chemie (International Ed. in English), 2023).
Values after ≈ are worked out from the molar mass of the structure shown. Values joined by “and” are separate entries in the source; they are usually repeats but may differ in a detail not shown here. Equal entries are not always repeated.

What was measured:
LecA [1] = target: T1, LecA (Pseudomonas aeruginosa, UniProt Q05097); assay: Competitive binding assay based on fluorescence polarization
T1 construct: made in house
T1 sequence (Q05097 whole entry): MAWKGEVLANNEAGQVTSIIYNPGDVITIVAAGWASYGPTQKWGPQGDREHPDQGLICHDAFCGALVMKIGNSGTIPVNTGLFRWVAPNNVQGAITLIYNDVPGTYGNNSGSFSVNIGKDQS
Protocol: All synthesized galactosides were then evaluated for LecA inhibition using a competitive binding assay based on fluorescence polarization (Figure S1).[24]
Expression and purification of LecA as well as competitive binding by fluorescence polarization was performed as described by Joachim et al..[9] The assay was performed in TBS/Ca2+ buffer (20 mM Tris, 137 mM NaCl, 2.6 mM KCl at pH 7.4 supplemented with 1 mM CaCl2) in presence of 25% DMSO. Averages and standard deviations were calculated from at least three independent experiments. […]
RR OR In h i b i to r [µ M ]
R R In h i b i to r [µ M ] […]
R In h i b i to r [µ M ] 30 L2
30 F2 40 K2 In h i b i to r [µ M ] […]
In h i b i to r [µ M ] In h i b i to r [µ M ]
Figure S1: Evaluation of amide divalent LecA ligands in a competitive binding assay based on fluorescence […]
representative experiment is shown or each series. Averages and standard deviations from at least three independent titrations of triplicates each.
[…] Fluorescence polarization [mP] -1 0 1 2 3 0 1001010 Me-α-Gal pNO2-Ph-β-Gal 1000 Inhibitor [µM] Fluorescence polarization [mP])

LecA [2] = target: T1, LecA; assay: Direct binding to immobilized LecA by surface plasmon resonance (SPR); details: for kon: SPR single-cycle kinetics, 25 °C, N=3 (I1 N=1); for Relative potency r.p. (SPR): compared to respective monovalent compound in each series
Protocol: K d values were oscillating with the number of methylene units present in the linker, presumably linked to the zig‐zag geometry of the hydrocarbon chain.
Expression and purification of LecA as well as competitive binding by fluorescence polarization was performed as described by Joachim et al..[9] […]
Surface plasmon resonance experiments were performed on a BIACORE X100 instrument (GE Healthcare) at 25 °C as described by Zahorska et. al..[8] Averages and standard deviations were calculated from three independent experiments. […]
Figure S3: SPR of divalent LecA ligands from benzene series. Sensorgrams obtained from SPR single-cycle kinetics experiments. Five different concentrations of each compound (0, 10, 50, 100, 200 nM) were sequentially injected to obtain the experimental sensorgrams (blue lines), which were then fitted by a 1:1 model (orange) on BIACORE evaluation software. […]
Figure S4: SPR of divalent LecA ligands from pyridine and sulfonated series. Sensorgrams obtained from SPR single-cycle kinetics experiments. Five different concentrations of each compound (0, 10, 50, 100, 200 nM) were sequentially injected to obtain the experimental sensorgrams (blue lines), which were then fitted by a 1:1 model (orange) on BIACORE evaluation software.
(also on this page, place not known: Response (RU)0 Response (RU)0 Response (RU) Response (RU) Response (RU) Response (RU) 030060090012001500) […]

[3] = Kinetic solubility in TBS/Ca2+ buffer (HPLC-MS); type: physicochemical; details: aqueous buffer, kinetic from dmso stock; TBS/Ca2+ buffer pH 7.4, 1 % DMSO, N≥3; read-out: Solubility S (kinetic)
Protocol: Next, we quantified the solubility of at least one representative of each new class and of one parent bisacylhydrazone in aqueous media (Table 1). […]
TBS/Ca2+ buffer (20 mM Tris, 137 mM NaCl, 2.6 mM KCl at pH 7.4 supplemented with 1 mM […]
(§1) CaCl2) in presence of 25% DMSO. […]
Kinetic solubility was determined on the analytical HPLC-MS using Compass QuantAnalysis quantification software (Bruker). Samples were prepared from DMSO stock solutions by dilution with TBS/Ca2+ buffer to 100 µM with 1% DMSO present. Samples were incubated on a shaker for 1 h at r.t., centrifuged (21380 g, 20 min), supernatants were diluted with DMSO (1:3), analyzed by HPLC-MS and fitted to the individual calibration curves.
Every experiment was repeated independently at least three times. […]

LecA [4] = target: T1, LecA; assay: Isothermal titration microcalorimetry (ITC) with LecA; type: binding; details: for -TΔS (supplement) / ΔS: ITC average ± s.d.; for Relative potency r.p. (ITC): compared to respective monovalent compound in each series; for ΔG, individual titration / ΔH, individual titration: LecA 35-182 µM, ligand 100 µM-1.5 mM as headed
Source text: Due to the high solubility of the propanamides in the pyridine series and the sulfonated ligand L2, we determined binding thermodynamics with LecA using isothermal titration microcalorimetry (ITC, Figure 3, Figures S5–S9). […] In both cases, the enthalpy of binding increased approximately twofold (I2: ΔH=−23.9±1.2 kcal mol^−1, L2: ΔH=−19.5±1.3 kcal mol^−1) compared to their monovalent analogues (G2: ΔH=−11.0±0.2 kcal mol^−1, K2: ΔH=−10.3±0.1 kcal mol^−1), while the binding entropy was increased approximately threefold (G2: −TΔS=3.8±0.2 kcal mol^−1 vs. I2: −TΔS=13.7±1.3 kcal mol^−1, K2: −TΔS=3.2±0.2 kcal mol^−1 vs. L2: −TΔS=9.4±1.3 kcal mol^−1).
Figure 3 Direct binding of selected ligands to LecA by ITC (N=3). Titration of LecA (50 μM) with divalent sulfonated ligand L2 (250 μM) is depicted. Relative potencies (r.p.) were calculated compared to respective monovalent compound in each series and […]. TEXT PRINTED IN THE PICTURE: G2: ΔG [kcal/mol]: -7.2 ± 0.1; ΔH [kcal/mol]: -11.0 ± 0.2; -TΔS [kcal/mol]: 3.8 ± 0.2; N: 1.07 ± 0.06; Kd [nM]: 5 270 ± 30; r.p.: 1 | I2: ΔG [kcal/mol]: -10.2 ± 0.2; ΔH [kcal/mol]: -23.9 ± 1.2; -TΔS [kcal/mol]: 13.7 ± 1.3; N: 0.43 ± 0.01; Kd [nM]: 35.1 ± 12.5; r.p.: 150 | J2: ΔG [kcal/mol]: -9.7 ± 0.2; ΔH [kcal/mol]: -13.5 ± 0.4; -TΔS [kcal/mol]: 3.8 ± 0.5; N: 0.61 ± 0.06; Kd [nM]: 79.5 ± 32.8; r.p.: 66 | K2: ΔG [kcal/mol]: -7.1 ± 0.1; ΔH [kcal/mol]: -10.3 ± 0.1; -TΔS [kcal/mol]: 3.2 ± 0.2; N: 1.08 ± 0.13; Kd [nM]: 6 230 ± 440; r.p.: 1 | L2: ΔG [kcal/mol]: -10.1 ± 0.1; ΔH [kcal/mol]: -19.5 ± 1.3; -TΔS [kcal/mol]: 9.4 ± 1.3; N: 0.52 ± 0.06; Kd [nM]: 39.9 ± 3.6; r.p.: 156 […]
Expression and purification of LecA as well as competitive binding by fluorescence polarization was performed as described by Joachim et al..[9] The assay was performed in TBS/Ca2+ buffer (20 mM Tris, 137 mM NaCl, 2.6 mM KCl at pH 7.4 supplemented with 1 mM […]
as §1
Isothermal titration calorimetry was performed on an iTC200 (Malvern Panalytical) and the data were analyzed using Microcal Origin software (Malvern Panalytical). LecA (50 - 180 […]
K2 and L2 and TBS/Ca2+ buffer supplemented with 5% DMSO for I2 and J2. Steep titration slopes achieved with the divalent ligands were the result of high amount of protein present and the high binding affinity of the ligand (high ‘value of c’).[10] However, LecA protein […]
low heat released upon binding. […]

[5] = ITC average, 25 °C, TBS/Ca2+ buffer (5% DMSO for I2 and J2), N=3
[6] = Kd (ITC), ITC average, 25 °C, TBS/Ca2+ buffer (5% DMSO for I2 and J2), N=3
[7] = Kd, individual titration, single ITC titrations, three per ligand
[8] = single ITC titrations, three per ligand

Row | Structure (SMILES) | IC50 (LecA [1]) [µM] | Kd (LecA [2]) [nM] | koff (LecA [2]) [s⁻¹] | kon (LecA [2]) | Relative potency r.p. (SPR) (LecA [2]) | solubility kinetic at 1 h [3] [µM] | -TΔS (supplement) (LecA [4]; 25 °C) [kcal/mol] | ΔS (LecA [4]; 25 °C) [cal/mol/K] | N (stoichiometry) (LecA [4]; ITC average, 25 °C, N=3) | -TΔS (LecA [4]; [5]) [kcal/mol] | ΔG (LecA [4]; [5]) [kcal/mol] | ΔH (LecA [4]; [5]) [kcal/mol] | Kd (LecA [4]; [6]) [nM] | Kd (LecA [4]; [7]) | Relative potency r.p. (ITC) (LecA [4]) | N, individual titration (LecA [4]; [8]) | ΔS, individual titration (LecA [4]; [8]) | ΔG, individual titration (LecA [4]; [8]) | ΔH, individual titration (LecA [4]; [8])
1 | O=C(CCc1ccc(O[C@@H]2O[C@H](CO)[C@H](O)[C@H](O)[C@H]2O)cc1)Nc1ccc(OCCCOc2ccc(NC(=O)CCc3ccc(O[C@@H]4O[C@H](CO)[C@H](O)[C@H](O)[C@H]4O)cc3)cn2)nc1 [Compound I2] | 3.2 ± 1.3 | 30.8 ± 1.5 | 0.00809 ± 0.00124 | 262 ± 28 x10^3/Ms | 97 | 63.3 ± 4.2 (≈ 55.8 µg/mL) | 13.7 ± 1.3 | -45.9 ± 4.5 | 0.43 ± 0.01 | 13.7 ± 1.3 | -10.2 ± 0.2 | -23.9 ± 1.2 | 35.1 ± 12.5 | 48.3 nM and 38.8 nM and 18.3 nM | 150 | 0.44 (2×) and 0.43 | -51.6 cal/mol/K and -40.6 cal/mol/K and -45.6 cal/mol/K | -10.0 kcal/mol and -10.1 kcal/mol and -10.6 kcal/mol | -23.6 kcal/mol and -25.5 kcal/mol and -22.7 kcal/mol
2 | O=C(CCc1ccc(O[C@@H]2O[C@H](CO)[C@H](O)[C@H](O)[C@H]2O)cc1)Nc1ccc(OCCCCOc2ccc(NC(=O)CCc3ccc(O[C@@H]4O[C@H](CO)[C@H](O)[C@H](O)[C@H]4O)cc3)cn2)nc1 [Compound J2] | 3.4 ± 1.3 | 25.1 ± 1.9 | 0.0068 ± 0.00265 | 267 ± 84 x10^3/Ms | 118 | 13.7 ± 1.7 (≈ 12.3 µg/mL) | 3.8 ± 0.5 | -12.6 ± 1.8 | 0.61 ± 0.06 | 3.8 ± 0.5 | -9.7 ± 0.2 | -13.5 ± 0.4 | 79.5 ± 32.8 | 59.9 nM and 52.9 nM and 126 nM | 66 | 0.53 and 0.62 and 0.69 | -10.1 cal/mol/K and -13.8 cal/mol/K and -14.0 cal/mol/K | -9.9 kcal/mol (2×) and -9.4 kcal/mol | -14.0 kcal/mol and -12.9 kcal/mol and -13.5 kcal/mol
